# Data published in US5633230A, “Treatment of cytomegalovirus infection” (priority 1994, dated 1997).
# Legend:
# [1] = test system: CMV strain PFA^r B300; assay: plaque reduction assay, foscarnet-resistant strain PFA^r B300; type: cell-based, human CMV; conditions: Human betaherpesvirus 5, MRC5
# Description: (§1) The anti-CMV activity of peptide AV-9 was evaluated against two ganciclovir-resistant and two foscarnet-resistant laboratory strains of human CMV in the continuous, human embryonic lung cell line MRC-5.
# (§2) To perform the studies, peptide AV-9 was dissolved as a solid in sterile, deionized water to a final stock concentration of 10 mM. This stock solution was subsequently diluted in cell culture medium to obtain the test concentrations used in the study. Ganciclovir (GCV) was dissolved in sterile, deionized water, and the drug concentration measured spectrophotometrically (7.8mM). Foscarnet (phosphonoformic acid, PFA) was dissolved in sterile, deionized water to a final concentration of 100 mM. Aliquots of the stock solutions were stored at -70° C.
# (§3) Drug-resistant human CMV strains 759^r D100, GDG^r K17, PFA^r D100 and PFA^r B300 were obtained from Dr. Donald M. Coen, Harvard Medical School, Boston, Mass. […]
# (§4) Anti-CMV activity of peptide AV-9, ganciclovir (GCV) and foscarnet (PFA) was assessed by standard plaque reduction assay using 24-well microtiter plates. […]
# (§5) MRC-5 cells (4-5×10^5 per well) were grown for 24 hours at 37° C. in 5% CO2 atmosphere in D-MEM/F-12FBS medium containing varying concentrations of drug. […] Vital plaques were counted under a microscope after removing the culture medium from the wells, staining the cells with 1.1% Crystal Violet solution, and washing twice with tap water. […]
# [2] = test system: CMV strain PFA^r D100; assay: plaque reduction assay, foscarnet-resistant strain PFA^r D100; type: cell-based, human CMV; conditions: Human betaherpesvirus 5, MRC5
# Description: as §1, §2, §3, §4, §5
# [3] = test system: CMV strain AD-169; assay: plaque reduction assay, CMV AD-169 in MRC-5 cells; type: cell-based, human CMV; conditions: Human betaherpesvirus 5, AD169, MRC5, CMV AD-169, MRC-5 (human embryonic lung), 24 h drug pretreatment
# Description: (§6) The following procedures were then used to determine inhibitory effects of AV-9 on the replication of CMV. […] This was accomplished by diluting the stock peptide solution in growth medium (10% fetal bovine serum and 10 μg/ml gentamicin in Dulbecco's MEM (DMEM)) used to overlay the monolayers.
# (§7) After pretreatment with AV-9, the monolayers were overlaid with 0.1 ml log10 dilutions of virus (CMV strain AD-169) ranging from 10^-1 to 10^-6. Virus was then allowed to adsorb for 1 hour at 37° C. The virus inoculum was removed and the monolayers were overlayed with DMEM containing 2% FBS, 10 ug/ml gentamicin and a specified concentration of AV-9. Virus was next allowed to replicate for 7 to 10 days until the plaques were judged to be well developed, and then the monolayers were fixed and stained with a solution of 1% crystal violet in 1% formaldehyde,70% ethanol. Finally, plaques (each representing a single viable virion) were counted and checked microscopically.
# (§8) In a like manner, plaque reduction assays were also performed against other CMV strains and another CMV host, with comparison against ganciclovir (GCV) and foscarnet (FCV).
# [4] = test system: CMV strain GDG^r K17; assay: plaque reduction assay, ganciclovir-resistant strain GDG^r K17; type: cell-based, human CMV; conditions: Human betaherpesvirus 5, MRC5
# Description: as §1, §2, §3, §4, §5
# [5] = test system: CMV strain AD-169; assay: plaque reduction assay, CMV AD-169 in HFF cells; type: cell-based, human CMV; conditions: Human betaherpesvirus 5, AD169, CMV AD-169, HFF
# Description: as §6
# as §7, with “After pretreatment with AV-9, the monolayers were overlaid with 0.1 ml log10 dilutions of virus (CMV strain AD-169) ranging from 10^-1 to 10^-6.” left out
# as §8
# [6] = test system: CMV strain AD-169; assay: CPE assay, CMV AD-169 in HFF cells; type: cell-based; conditions: Human betaherpesvirus 5, AD169, CMV AD-169, HFF (human foreskin fibroblast), without 24 h drug pretreatment
# Source text: *CPE assay, all others are plaque reduction assays.
# [7] = test system: Smith strain of murine CMV; assay: murine CMV infection in cyclophosphamide-immunosuppressed mice; type: in vivo, BALB/c mice
# Source text: This immunosuppression model mimics the human patient situation, wherein the HCMV-induced disease in immunosuppressed individuals can often be fatal. The particular model used for evaluating potential antiviral activity has been described by Smee et al in J. Infect. Dis., 1991, 164: 958.
# The Smith strain of murine CMV, obtained originally from the American Type Culture Collection (Rockville, Md.) was used. A mouse salivary gland preparation was used for the virus pool. An inoculation of 2×10^4 plaque forming units of the virus was used in the antiviral study. Female BALB/c mice weighing 10-12 g were quarantined 24 hr prior to use, and maintained on Wayne Lab Blox and tap water ad libitum the duration of the study.
# Ganciclovir (DHPG) was purchased from a commercial source, and cyclophosphamide was purchased from Sigma Chemical Co. (St. Louis, Mo.).
# To determine tissue virus titre, homogenates of infected mouse organs were titrated for virus using C127/I cells in 96-well microplates. Each tissue sample was homogenized and titrated separately with 3 micro wells used per dilution; plates were read by microscopic examination for viral-induced cytopathic effect, with 50% end points determined by the Reed-Muench method. Mean viral titers were expressed at 50% cell culture infectious doses (CCID50)/gram of tissue.
# For statistical evaluation, increases in mean day to death and reductions in viral titers were assessed using the two-tailed Mann-Whitney U test. Total survivor increases were evaluated by chi square analysis with Yates'.
# [8] = test system: CMV strain 759^r D100; assay: plaque reduction assay, ganciclovir-resistant strain 759^r D100; type: cell-based, human CMV; conditions: Human betaherpesvirus 5, MRC5
# Description: as §1, §2, §3, §4, §5
# [9] = toxicity control mice, immunosuppressed, uninfected
# Description: The mice were immunosuppressed by intraperitoneal (i.p.) injection with 100 mg/kg/day of cyclophosphamide administered on days -1, +3, +6, +10, +14 and +18 relative to virus inoculation. […] In a second portion of the study, the compound was administered i.p. in a dose of 0.1 mg/kg/day once daily from day -2 through +10. Ganciclovir in a dose of 50 mg/kg/day was injected i.p. once daily for 10 days beginning 24 hr post-virus exposure (days +1→+10). A total of 15 infected mice/dose were used. […] Five toxicity control mice were used at each dose; these mice were treated in parallel with the infected mice, and were weighed on the initial day of treatment and again 24 after the final treatment. […] Normal controls were weighed and held in parallel with the toxicity controls.
# [10] = 50 mg/kg/day i.p. days +1 to +10, 9 days after virus challenge
Structure (SMILES),IC50 [1],IC50 [2],IC50 [3],IC50 [4],IC50 [5],IC50 [6],days after initiation of infection until first deaths ([7]; 50 mg/kg/day i.p. days +1 to +10),"Tissue Virus Titer ± S.D., Lung [7, 10]","Tissue Virus Titer ± S.D., Salivary Gland [7, 10]","Tissue Virus Titer ± S.D., Spleen [7, 10]","Surv/Total ([7]; infected mice, 50 mg/kg/day i.p., days +1 through +10)","Mean Day to Death ± S.D. ([7]; infected mice, 50 mg/kg/day i.p., days +1 through +10, P<0.01 vs saline)",IC50 [8],"Mean Body Weight Change ([9]; 50 mg/kg/day i.p. days +1 to +10, start of treatment to 24 hr after final treatment)","Surv/Total ([9]; toxicity controls, 50 mg/kg/day i.p., days +1 through +10)"
"O=C(O)P(=O)(O)O [FCV, phosphonoformic acid]",385 µM,234 µM,96 µM,–,–,–,–,–,–,–,–,–,–,–,–
"Nc1nc2c(ncn2COC(CO)CO)c(=O)[nH]1 [GCV, 9-[(1,3-dihydroxy-2-propoxy)methyl]guanine, reference compound]",–,–,–,6.1 µM,2 µM,5.8 µM,≥ 21 days,0 ± 0.0 log10 CCID50/g,3.5 ± 0.9 log10 CCID50/g,0.5 ± 1.2 log10 CCID50/g,0/10,22.9 ± 1.1 days,30.5 µM,4.2 g,5/5
